As a reminder, the Dmax is the greatest extent of degradation seen.

SMILES strings stand for the structures.

One experiment concerns the target T1, IKZF1 (Ikaros) (Homo sapiens, UniProt Q13422+Q96SW2).
T1 construct: mScarlet (C, cleaved yes); expressed in transfected cells
In words: Stable cell line fluorescent reporter degradation assay, IKZF1. In kind it is cell-based. As to conditions: HEK 293T IKZF1-mNeonGreen reporter cells, 24 hour incubation, calculated visually from the curves; for Dmax at 10 µM: 10 micromolar. The source says: (§1) Polycistronic plasmids were constructed for the mammalian expression of fluorescent reporter fusions of human transcription factors IKZF1 (Ikaros) and IKZF3 (Aiolos). The respective protein sequences had their C-terminal end joined to a GGGGS linker repeated three times followed by mNeonGreen, P2A sequence, and mScarlet. IKZF1 expression was driven by a CMV promoter while IKZF3 was EF1α promoter driven. The plasmids contained the HygR resistance gene for positive selection of cells with genomic integration of the reporter constructs. The plasmids were transfected using cationic lipid reagents into adherent HEK 293T cells and stable integrants were selected by treatment with 200 ug/mL hygromycin B. Clonal populations were obtained from the population of stable integrants either by limiting dilution or fluorescence activated cell sorting. The clonal stable cell lines were maintained under constant 200 ug/mL hygromycin B selection while being passaged for use in the degradation assays. The fluorescence intensity of the IKZF1/2/3-mNeonGreen (FITC channel) and mScarlet (PE channel) reporters were routinely analyzed by flow cytometry to confirm consistent expression levels between experiments.
(§2) Representative compounds were evaluated for their ability to degrade IKZF1 and IKZF3 in the following assay.
(§3) The IKZF1/IKZF3 degradation assays were carried out by harvesting the HEK 293T reporter cell lines and resuspending the cells in media formulated for reduced background fluorescence. The respective cell lines were seeded at a density of 4,000 cells/well into black-walled 384-well optical grade assay plates pre-coated by the manufacturer with PDL. The cells were incubated overnight to allow for attachment to the assay plate (37° C. with humidified air and 5% CO2 for all incubations). Dilutions of the compounds were prepared in dimethyl sulfoxide (DMSO) from 10 mM compound stock solutions in DMSO. The assay plates were treated with appropriate concentrations of the compounds by dispensing the DMSO dilutions in quadruplicate wells with an upper limit of 0.5% final DMSO.
(§4) After a 24 hour incubation with the compounds, the assay plates were imaged on an ImageXpress Pico microscopy system (cells maintained at 37° C. during imaging) to obtain the fluorescent readouts. The assay plates were imaged in the FITC and TRITC channels to obtain the mNeonGreen fluorescence intensity (reporter degradation data) and mScarlet fluorescence intensity (for cell segmentation), respectively. 293T-IKZF1 and 293T-IKZF3 reporter cell lines were imaged with exposures of 500 milliseconds (ms) for both FITC and TRITC channels. The resulting data was analyzed with Cell Reporter Xpress software using the 2-channel cell scoring analysis with a “percent positive” readout. The TRITC channel was selected for the “nuclei” segmentation with a threshold of 20 while the FITC channel was selected for the “Marker 1” segmentation and a threshold of 100 for the IKZF1 and IKZF3 reporter lines. The minimum segmentation width was set to 6 micrometers and the maximum segmentation width was set to 15 micrometers for all cell lines.
(§5) The percent degradation amounts were calculated visually from the curves generated at a concentration of 10 micromolar.

The target in the next experiment is T2, IKZF3 (Aiolos) (Homo sapiens, UniProt Q96SW2+Q9UKT9).
T2 construct: mScarlet (C, cleaved yes); expressed in transfected cells
In words: Stable cell line fluorescent reporter degradation assay, IKZF3. As to conditions: HEK 293T IKZF3-mNeonGreen reporter cells, 24 hour incubation, calculated visually from the curves; for Dmax at 10 µM: 10 micromolar. The class given is cell-based.
Text: as §1, §2, §3, §4, §5

For another experiment, the target named is T3, cereblon (NanoLuc-CRBN) (Homo sapiens, UniProt Q96SW2).
T3 construct: host or cells: HEK293T
The experiment in a line: NanoBRET CRBN Cellular Target Engagement Assay. In kind it is binding. To be noted: compound tested at 10 μM, HEK293T cells transfected with NanoLuc-CRBN, 2 hr incubation; for remaining activity at 10 µM: lower = higher affinity, read-out: % tracer bound At the end of assay; for inhibition at 10 µM: read-out: % tracer removed From CBLN. The source says:
The following example measures the extent to which a test compound of this invention binds to cereblon. In this example, a commercially available cereblon binding test kit (Promega Corporation, Madison, Wis., USA) was used but adapted to a 384 well format.
The kit comprises a tracer that binds to cereblon to form a tracer-cereblon complex. This complex is reversible. Upon addition of the test compound, competition between the tracer and the test compound for the binding site(s) on cereblon occurs. The extent of tracer release from cereblon correlates to the affinity of test compound to bind to cereblon. The higher the affinity, the more tracer is released from cereblon.
The assay is a homogenous cell-based assay that used bioluminescence resonance energy transfer (BRET) to measure cereblon target compound binding which causes loss of BRET. Lower BRET values correlate to higher loss of tracer bound to cereblon and, accordingly, higher the levels of target compound binding to cereblon.
The specifics of the assay include HEK293T cells were transfected with a NanoLuc-CRBN expression plasmid using Fugene as described. Approximately 24 hr later, transfected cells were washed with 1× Phosphate Buffered Saline (PBS) and harvested using trypsin. Cells were resuspended in Opti-MEM (available from Thermo Fisher Scientific) at a concentration of 2×10^5 cells/mL. A ratio of 1 part 100× Tracer to 4 parts NanoBRET Tracer Dilution Buffer was used to make a 20× Tracer stock. Next, 40 μl cells per well containing 1× tracer was dispensed into 384 well white tissue culture treated plates. Compounds were then dispensed using a D330e Digital Dispenser (Tecan Trading AG) and plates were allowed to incubate for 2 hr at 37° C., 5% CO2. Immediately prior to BRET measurements, a 3× Complete NanoBret Nano-Glo Substrate stock in Opti-MEM was prepared and 20 μl per well of substrate was subsequently added to the assay plates. Following a 2-3 minute incubation at room temperature, donor (450 nm) and acceptor (610 nm) emission values were read on a CLARIOStar multimode plate reader (BMG) in luminescence mode. Data were converted to milliBRET units by dividing acceptor emission values by donor emission and multiplying by 1000. […]

T2 sequence (Q9UKT9 whole entry): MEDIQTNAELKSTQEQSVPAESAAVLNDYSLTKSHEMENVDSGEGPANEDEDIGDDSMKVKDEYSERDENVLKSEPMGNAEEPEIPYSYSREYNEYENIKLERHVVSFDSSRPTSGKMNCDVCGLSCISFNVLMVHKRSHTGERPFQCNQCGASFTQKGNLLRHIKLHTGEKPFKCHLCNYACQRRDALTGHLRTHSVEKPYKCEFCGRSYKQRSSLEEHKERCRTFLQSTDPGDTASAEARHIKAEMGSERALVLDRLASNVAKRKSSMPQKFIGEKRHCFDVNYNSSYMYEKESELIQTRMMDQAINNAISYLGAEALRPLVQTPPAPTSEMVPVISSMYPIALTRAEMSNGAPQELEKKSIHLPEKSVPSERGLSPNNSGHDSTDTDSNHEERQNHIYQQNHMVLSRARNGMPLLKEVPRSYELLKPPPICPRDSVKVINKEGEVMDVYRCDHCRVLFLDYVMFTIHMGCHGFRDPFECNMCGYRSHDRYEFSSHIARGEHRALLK
T2 sequence (Q96SW2 whole entry): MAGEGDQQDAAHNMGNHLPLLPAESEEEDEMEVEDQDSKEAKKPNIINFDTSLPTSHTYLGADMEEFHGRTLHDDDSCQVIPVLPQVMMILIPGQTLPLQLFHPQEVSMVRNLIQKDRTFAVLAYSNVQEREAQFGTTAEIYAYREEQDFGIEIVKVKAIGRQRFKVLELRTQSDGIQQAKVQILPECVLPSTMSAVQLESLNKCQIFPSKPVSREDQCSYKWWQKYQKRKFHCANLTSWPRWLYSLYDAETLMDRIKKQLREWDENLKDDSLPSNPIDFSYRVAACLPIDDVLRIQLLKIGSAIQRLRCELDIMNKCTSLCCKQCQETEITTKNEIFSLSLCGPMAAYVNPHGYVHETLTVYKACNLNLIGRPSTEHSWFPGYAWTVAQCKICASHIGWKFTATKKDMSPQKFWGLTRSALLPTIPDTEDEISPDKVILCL
T2 sequence (Q16531 whole entry partner): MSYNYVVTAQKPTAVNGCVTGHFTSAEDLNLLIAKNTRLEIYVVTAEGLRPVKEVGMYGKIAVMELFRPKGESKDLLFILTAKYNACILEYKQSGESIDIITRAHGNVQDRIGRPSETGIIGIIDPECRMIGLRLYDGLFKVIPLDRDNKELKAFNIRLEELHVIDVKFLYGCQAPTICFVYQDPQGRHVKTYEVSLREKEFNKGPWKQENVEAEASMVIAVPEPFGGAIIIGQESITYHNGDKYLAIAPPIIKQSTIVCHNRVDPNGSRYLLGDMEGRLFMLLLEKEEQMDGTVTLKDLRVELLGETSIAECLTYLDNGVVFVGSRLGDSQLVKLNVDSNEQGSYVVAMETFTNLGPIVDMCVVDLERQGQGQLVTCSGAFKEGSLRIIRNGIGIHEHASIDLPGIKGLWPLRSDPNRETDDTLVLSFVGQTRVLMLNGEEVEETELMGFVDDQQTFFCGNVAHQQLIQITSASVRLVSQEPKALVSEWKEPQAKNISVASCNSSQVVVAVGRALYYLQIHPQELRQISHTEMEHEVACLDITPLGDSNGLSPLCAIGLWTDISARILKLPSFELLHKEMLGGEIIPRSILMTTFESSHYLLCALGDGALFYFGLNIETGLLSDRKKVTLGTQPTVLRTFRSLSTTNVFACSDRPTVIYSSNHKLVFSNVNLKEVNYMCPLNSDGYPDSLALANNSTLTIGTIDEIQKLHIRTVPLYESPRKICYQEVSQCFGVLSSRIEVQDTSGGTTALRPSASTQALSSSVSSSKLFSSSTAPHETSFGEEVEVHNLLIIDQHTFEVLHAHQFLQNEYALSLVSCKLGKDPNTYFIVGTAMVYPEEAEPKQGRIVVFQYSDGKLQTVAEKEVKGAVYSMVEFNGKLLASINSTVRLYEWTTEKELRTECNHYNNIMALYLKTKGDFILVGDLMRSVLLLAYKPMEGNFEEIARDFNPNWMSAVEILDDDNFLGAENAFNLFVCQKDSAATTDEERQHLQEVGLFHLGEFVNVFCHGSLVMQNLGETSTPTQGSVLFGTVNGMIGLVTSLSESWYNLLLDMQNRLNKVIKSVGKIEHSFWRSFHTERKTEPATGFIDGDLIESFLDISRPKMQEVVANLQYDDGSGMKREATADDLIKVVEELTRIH
T3 sequence (Q96SW2 whole entry): as the sequence (Q96SW2 whole entry) above
T1 sequence (Q13422 whole entry): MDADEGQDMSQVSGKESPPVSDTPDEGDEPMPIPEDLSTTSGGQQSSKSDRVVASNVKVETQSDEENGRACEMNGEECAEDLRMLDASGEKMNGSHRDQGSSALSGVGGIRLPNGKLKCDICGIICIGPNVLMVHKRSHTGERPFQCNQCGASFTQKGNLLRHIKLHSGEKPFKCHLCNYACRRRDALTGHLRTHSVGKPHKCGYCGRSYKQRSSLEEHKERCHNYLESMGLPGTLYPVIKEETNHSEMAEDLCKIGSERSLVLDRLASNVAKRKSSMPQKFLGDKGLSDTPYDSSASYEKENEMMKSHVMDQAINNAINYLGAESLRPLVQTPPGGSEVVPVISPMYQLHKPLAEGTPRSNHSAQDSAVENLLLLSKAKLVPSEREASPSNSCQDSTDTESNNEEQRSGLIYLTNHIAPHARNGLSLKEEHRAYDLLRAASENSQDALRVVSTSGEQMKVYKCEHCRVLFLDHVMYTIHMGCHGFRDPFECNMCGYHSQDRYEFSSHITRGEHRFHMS
T1 sequence (Q96SW2 whole entry): as the sequence (Q96SW2 whole entry) above
T1 sequence (Q16531 whole entry partner): as the sequence (Q16531 whole entry partner) above

Turning to `COc1ccc(CNc2cccc3nc(C)n(C4CCC(=O)NC4=O)c(=O)c23)cc1` (centres unmarked) [Example 1, 3-(5-((4-methoxybenzyl)amino)-2-methyl-4-oxoquinazolin-3(4H)-yl)piperidine-2,6-dione], the Dmax at 10 µM on IKZF1 (Ikaros) was 89.1%. For the same molecule, the Dmax at 10 µM at IKZF3 (Aiolos) was 91.1%. Further, on cereblon (NanoLuc-CRBN), the remaining activity at 10 µM came out at 47.3% and the inhibition at 10 µM is 52.7%.

On to `Cc1nc2cccc(NCc3ccc(F)cc3)c2c(=O)n1C1CCC(=O)NC1=O` (centres unmarked) [Example 4, 3-(5-((4-fluorobenzyl)amino)-2-methyl-4-oxoquinazolin-3(4H)-yl)piperidine-2,6-dione], for which the Dmax at 10 µM on IKZF1 (Ikaros) (HEK-293T, 24 h) is 92.4%. In addition, on IKZF3 (Aiolos) (HEK-293T, 24 h), the Dmax at 10 µM is 95.8%. Further, at cereblon (NanoLuc-CRBN), the remaining activity at 10 µM is 40.9% and the inhibition at 10 µM was determined as 59.1%.

Turning to `Cc1nc2cccc(NCc3cccc(F)c3)c2c(=O)n1C1CCC(=O)NC1=O` (centres unmarked) [Example 5, 3-(5-((3-fluorobenzyl)amino)-2-methyl-4-oxoquinazolin-3(4H)-yl)piperidine-2,6-dione], the maximal degradation (Dmax) at 10 µM on IKZF1 (Ikaros) (HEK-293T, 24 h) is 89.7%. Also, the Dmax at 10 µM on IKZF3 (Aiolos) (HEK-293T, 24 h) was 93.6%. On cereblon (NanoLuc-CRBN), the remaining activity at 10 µM came to 23.8% and the inhibition at 10 µM was determined as 76.2%.

On to `Cc1cccc(CNc2cccc3nc(C)n(C4CCC(=O)NC4=O)c(=O)c23)c1` (centres unmarked) [Example 7, 3-(2-methyl-5-((3-methylbenzyl)amino)-4-oxoquinazolin-3(4H)-yl)piperidine-2,6-dione], for which the Dmax at 10 µM on IKZF1 (Ikaros) (HEK-293T, 24 h) was 76.8%. Besides, at IKZF3 (Aiolos) (HEK-293T, 24 h), the greatest degradation seen (Dmax) at 10 µM is 94.3%. At cereblon (NanoLuc-CRBN), the remaining activity at 10 µM is 22.9% and the inhibition at 10 µM turned out to be 77.1%.

In the case of `Cc1nc2cccc(NCc3ccc(CN4CCN(c5ccc(C#N)cc5F)CC4)cc3)c2c(=O)n1C1CCC(=O)NC1=O` (centres unmarked) [Example 34, 4-(4-(4-(((3-(2,6-dioxopiperidin-3-yl)-2-methyl-4-oxo-3,4-dihydroquinazolin-5-yl)amino)methyl)benzyl)piperazin-1-yl)-3-fluorobenzonitrile], the Dmax at 10 µM at IKZF1 (Ikaros) was 93.1%. At IKZF3 (Aiolos), the Dmax at 10 µM is 93.2%. Moreover, at cereblon (NanoLuc-CRBN), the remaining activity at 10 µM worked out at 27.4% and the inhibition at 10 µM was determined as 72.6%.

For `Cc1nc2cccc(NCc3ccc(CN4CC(N5CCOCC5)C4)cc3F)c2c(=O)n1C1CCC(=O)NC1=O` (centres unmarked) [Example 96, 3-(5-((2-fluoro-4-((3-morpholinoazetidin-1-yl)methyl)benzyl)amino)-2-methyl-4-oxoquinazolin-3(4H)-yl)piperidine-2,6-dione], the “% Degradation IKZF1 @ 10 micromolar” value on IKZF1 (Ikaros) is 92.6%. Further, the “% Degradation IKZF3 @ 10 micromolar” value on IKZF3 (Aiolos) is on record as 92.6%.

As to `Cc1nc2cccc(NCc3ccc(CN4CCOCC4)cc3)c2c(=O)n1C1CCC(=O)NC1=O` (centres unmarked) [compound 32, 3-(2-methyl-5-((4-(morpholinomethyl)benzyl)amino)-4-oxoquinazolin-3(4H)-yl)piperidine-2,6-dione], the maximal degradation (Dmax) at 10 µM on IKZF1 (Ikaros) is 93.8%; at IKZF3 (Aiolos), 91.9%.

As for `Cc1nc2cccc(NCc3cccc(CN4CCN(c5ccc(C#N)cc5F)CC4)c3)c2c(=O)n1C1CCC(=O)NC1=O` (centres unmarked) [compound 33, 4-(4-(3-(((3-(2,6-dioxopiperidin-3-yl)-2-methyl-4-oxo-3,4-dihydroquinazolin-5-yl)amino)methyl)benzyl)piperazin-1-yl)-3-fluorobenzonitrile], the values for the Dmax at 10 µM on IKZF1 (Ikaros) and on IKZF3 (Aiolos) were 95.5% and 87.4%, respectively.

On to `O=C1CCC(n2nnc3cccc(NCc4ccc(CN5CCOCC5)cc4)c3c2=O)C(=O)N1` (centres unmarked) [compound 36, 3-(5-((4-(morpholinomethyl)benzyl)amino)-4-oxobenzo[d][1,2,3]triazin-3(4H)-yl)piperidine-2,6-dione], for which the Dmax at 10 µM at IKZF1 (Ikaros) (HEK-293T, 24 h) was 88.2%; at IKZF3 (Aiolos) (HEK-293T, 24 h), 87.4%.

With `Cc1nc2cccc(NCc3ccc(CN4CC(N5CCOCC5)C4)cc3F)c2c(=O)n1C1CCC(=O)NC1=O` (centres unmarked) [compound 91, 3-(5-((2-fluoro-4-((3-morpholinoazetidin-1-yl)methyl)benzyl)amino)-2-methyl-4-oxoquinazolin-3(4H)-yl)piperidine-2,6-dione], the Dmax at 10 µM at IKZF1 (Ikaros) (HEK-293T, 24 h) is 97.1%; on IKZF3 (Aiolos) (HEK-293T, 24 h), 96.3%.

As to `O=C1CCC(n2cnc3cccc(NCc4ccc(CN5CC(N6CCOCC6)C5)cc4F)c3c2=O)C(=O)N1` (centres unmarked) [compound 101, 3-(5-((2-fluoro-4-((3-morpholinoazetidin-1-yl)methyl)benzyl)amino)-4-oxoquinazolin-3(4H)-yl)piperidine-2,6-dione], the greatest degradation seen (Dmax) at 10 µM on IKZF1 (Ikaros) (HEK-293T, 24 h) was 78.4%; at IKZF3 (Aiolos) (HEK-293T, 24 h), 92.4%.
